Test results published in patent US6399310B1, “Methods for improving the therapeutic response of humans having major depression and carrying the gene for apolipoprotein E4” (Akzo Nobel N.V., priority 2001, dated 2002).

How the values were obtained:
Type in all cases: in vivo, human
[1] = test system: patients 65 years of age and older with major depression; test: Hamilton Depression Rating Scale (HDRS-17 / HDRS-21) in 8-week double-blind comparison of paroxetine and mirtazapine
Text: Hamilton Depression Rating Scale (HDRS; 17 and 21 item versions of a structured interview) (Hamilton, M., J. Neurol. Neurosurg. Psychiatr. 23:56-62, 1960; Hamilton, M., Br. J. Soc. Clin. Psychol. 6:278-296, 1967). […] In other words, a lower rating in the HDRS scale signifies less depression. In contrast, HDRS remitters, which are those patients showing the least depression, are defined as subjects who have an HDRS-17 score of less than 7 at a post-baseline visit.
(§1) All statistical analyses were performed using the SAS software package (available from SAS Institute). For clinical measures of depression (HDRS-21, HDRS-17, GDS, and CGI), analyses of covariance were performed with baseline values as the covariate, and apoE genotype (ε4 allele carrier vs. non-carrier) and medication (mirtazapine, paroxetine) as the predictors. For remitter and responder analyses of clinical measures of depression, Cochran-Mantel-Haenszel statistics were used. For comparison of medication and genotype groups on baseline demographic measures, two-way analyses of variance were used.

[2] = test system: patients 65 years of age and older with major depression; test: Geriatric Depression Scale (GDS) in 8-week double-blind comparison
Procedure: Geriatric Depression Scale (GDS) (Yesavage, J. A. et al., J. Psychiatr. Res. 17:37-49, 1983), a self-rating scale developed specifically for rating depression in the elderly. In the GDS, a lower rating signifies less depression. GDS 50% responders are defined as subjects with a decrease on a post-baseline assessment of at least 50% as compared to baseline.
as §1

[3] = test system: patients 65 years of age and older with major depression; test: Clinical Global Impression Scale (CGI) in 8-week double-blind comparison; conditions: day 14
Text: Clinical Global Impression Scale (CGI) (Guy, W., ECDEU Assessment Manual for Psychopharmacology, DHEW Publication No. (ADM) 76-338, rev. 1976). The CGI scale is a global 7-point rating of the severity of the illness taking into account the preceding week (CGI-Severity) and a global 7-point rating of the clinical status of the subject since baseline (CGI-Change). A responder is defined as being “Much Improved” or “Very Much Improved” —having a CGI score of at least 2 according to CGI-Change. Thus, a higher CGI-Severity score corresponds to more severe depression whereas a higher CGI-Change score corresponds to lessened depression, or an improvement in alleviating the symptoms of depression.
as §1

[4] = day 14, Caucasian subjects, p=0.006

SMILES | HDRS-17 scores, mirtazapine-treated compared with paroxetine-treated patients ([1]; day 7, full cohort) | HDRS scores, ε4 carriers compared with noncarriers ([1]; day 14, Caucasian subjects) | mean HDRS-17 scores, mirtazapine compared with paroxetine [1, 4] | mean HDRS-21 scores, mirtazapine compared with paroxetine [1, 4] | HDRS-17 scores, mirtazapine-treated compared with paroxetine-treated patients ([1]; day 14, full cohort) | HDRS-21 scores, mirtazapine-treated compared with paroxetine-treated patients ([1]; day 14, full cohort) | HDRS-17 50% responders, ε4 carriers compared with non-ε4 carriers ([1]; day 14, full cohort, p=0.049) | GDS scores, ε4 carriers compared with noncarriers ([2]; day 14, Caucasian subjects) | GDS scores, effect of ε4 allele ([2]; day 14, full cohort) | CGI scores, ε4 carriers compared with noncarriers ([3]; Caucasian subjects) | CGI scores, mirtazapine treated compared with paroxetine treated subjects ([3]; Caucasian subjects, p=0.037) | CGI scores, mirtazapine-treated compared with paroxetine-treated patients ([3]; full cohort) | 50% reduction in GDS score, ε4 carriers compared with noncarriers ([2]; day 28, full cohort)
CN1CCN2c3ncccc3Cc3ccccc3C2C1 (stereo not shown) [mirtazapine, 1,2,3,4,10,14b-hexahydro-2-methylpyrazino[2,1-a]pyrido[2,3-c]benzazepine] | significantly greater improvement | greater improvement | significantly lower | significantly lower | Significantly greater improvement | Significantly greater improvement | significantly more | significantly lower | large decrease in GDS scores | significantly better | significantly better | Significantly greater improvement | –
Fc1ccc([C@@H]2CCNC[C@H]2COc2ccc3c(c2)OCO3)cc1 [paroxetine] | – | lees improvement | – | – | – | – | – | – | no significant difference | no differences | – | – | no effect of apoE genotype
